Assay results published in paper PMC10572522, “A Designed Analog of an Antimicrobial Peptide, Crabrolin, Exhibits Enhanced Anti-Proliferative and In Vivo Antimicrobial Activity” (International Journal of Molecular Sciences, 2023).
Residues, ends and D or L forms follow the SMILES beside them.

What was measured:
[1] = tested on: P. aeruginosa (ATCC 9027); assay: Antimicrobial susceptibility assay (MIC/MBC); format: cell-based, Pseudomonas aeruginosa; conditions: for MIC: MHB, 37 °C, 20 h
Method: (§1) Six bacteria were tested in this experiment to detect the antimicrobial effects of crabrolin and its derivatives, including S. aureus (NCTC 10788), MRSA (NCTC 12493), E. coli (ATCC 8739), K. pneumoniae (ATCC 43816), E. faecium (NTCC-12697), and P. aeruginosa (ATCC 9027). The tested bacteria were cultured in Mueller Hinton broth medium (MHB) with norfloxacin (20 mg/L) as a positive control. All bacteria were incubated at 37 °C overnight and diluted to 5 × 10^5 CFU/mL before treating with the peptides. Stock solutions of 51,200 µM peptides were prepared in phosphate-buffered saline (PBS) and further diluted by a factor of two to 100 µM. Next, 1 µL of each peptide solution was mixed with 99 µL of bacterial subculture in a 96-well plate, and the plate was incubated at 37 °C for 20 h. After culturing, the absorbance of each well in the 96-well plate was analyzed at 550 nm using a Synergy HT plate reader (BioliseBioTek, Winooski, VT, USA). […] Starting with the MIC value, 10 µL of the solution from each well was dripped onto Mueller Hinton agar (MHA) plates. The plates were cultured at 37 °C for 20 h. After culturing, the lowest concentration with no colony growth was regarded as the MBC.

[2] = tested on: P. aeruginosa (ATCC 9027) biofilm; format: cell-based, Pseudomonas aeruginosa; conditions: for MBIC: biofilm inhibitory rate more than 90%; for MBEC: eradication rate greater than 99.9%
Method: (§2) To measure the antibiofilm activity of crabrolin and its derivatives, four drug-resistant biofilm-forming strains, MRSA (NCTC 12493), K. pneumoniae (ATCC 43816), E. faecium (NTCC-12697), and P. aeruginosa (ATCC 9027), were used in this assay. Tryptic soy broth (TSB) (for the Gram-positive bacteria) and Luria–Bertani broth (LB) (for the Gram-negative bacteria) were used to culture the bacteria.
(§3) The mass of the biofilm in this assay was detected by the crystal violet staining method. First, 100 μL of 5 × 10^5 CFU/mL bacteria was incubated with 1 μL of different peptide solutions (ranging from 51200 μM to 100 μM) for 24 h at 37 °C with 200 rpm shaking. After the biofilm formation, 100 μL of PBS was used to rinse the biofilm twice. Next, 100 µL of methanol was added to fix the biofilm, and the biofilm was then dried. Thereafter, 100 μL of 0.1% crystal violet was added and left to stain for 15 min, and then the excess crystal violet was further rinsed by PBS. After the plate had air-dried, 30% glacial acetic acid was added to each well of the plate, and the plate was shaken for 15 min before the optical density (OD) value was measured at 595 nm using a Synergy HT plate reader. The MBIC value refers to the minimum concentration at which the biofilm inhibitory rate was more than 90%.
(§4) Different from measuring the MBIC value, to determine the MBEC value, 100 μL of the bacteria was first added to 96-well plates. After the biofilm was formed, the biofilm was rinsed with PBS twice to remove the planktonic cells, and then different concentrations of the drugs were added to the biofilm (the same as the MBIC assay). The mixture was incubated at 37 °C with shaking at 200 rpm. After 24 h of incubation, the mass of the biofilm was measured in the same way as the MBIC value, and the minimum concentration at which the eradication rate was greater than 99.9% was considered to be the MBEC value.

[3] = tested on: Galleria mellonella larvae; assay: Toxicity to Galleria mellonella larvae without infection; format: in vivo; conditions: highest dose (50 mg/kg)
[4] = tested on: K. pneumoniae (ATCC 43816); assay: Antimicrobial susceptibility assay (MIC/MBC); format: cell-based, Klebsiella pneumoniae; conditions: for MIC: MHB, 37 °C, 20 h
Method: as §1

[5] = tested on: K. pneumoniae (ATCC 43816) biofilm; format: cell-based, Klebsiella pneumoniae; conditions: for MBIC: biofilm inhibitory rate more than 90%; for MBEC: eradication rate greater than 99.9%
Method: as §2, §3, §4

E. faecium (NTCC 12697) = assay: Antimicrobial susceptibility assay (MIC/MBC); format: cell-based, Enterococcus faecium; conditions: for MIC: MHB, 37 °C, 20 h
Method: as §1

[6] = tested on: MRSA (NCTC 12493) biofilm; format: cell-based, methicillin-resistant Staphylococcus aureus; conditions: for MBIC: biofilm inhibitory rate more than 90%; for MBEC: eradication rate greater than 99.9%
Method: as §2, §3, §4

[7] = tested on: human colorectal carcinoma cell line HCT-116; assay: Anti-proliferative assay (MTT); format: cell-based; conditions: HCT-116, MTT, 24 h
Method: (§5) The human non-small-cell lung cancer line, H838, the human prostate carcinoma cell line, PC-3, the human glioblastoma astrocytoma, U251MG, the human breast cancer cell line, MCF-7, the human colorectal carcinoma cell line, HCT116, and the human keratinocyte cell line, HaCaT, were used to detect the anti-proliferative effects of the crabrolin and its derivatives in vitro. A total of 8000 cells were seeded in each well of a 96-well plate. After the cells had adhered to the wall, the cells were starved for 4 h. After the starvation, the cells were incubated with different concentrations of the drugs, ranging from 100 µM to 1 nM, for 24 h, with 0.1% Triton X-100 used as a positive control. Next, 10 µL of MTT (3-(4,5-dimethylthiazol-2-yl)-2,5-diphenyltetrazolium bromide) solution (5 mg/mL) was added to each well of the 96-well plate. After 2 h of incubation, 100 μL of DMSO-superseded medium was added to each well to dissolve the formazan crystals. Finally, the absorbance was detected using a Synergy HT plate reader at 570 nm.

[8] = tested on: human glioblastoma astrocytoma U251MG; assay: Anti-proliferative assay (MTT); format: cell-based; conditions: 24 h
Method: as §5

[9] = tested on: human keratinocyte cell line HaCaT; assay: Anti-proliferative assay (MTT); format: cell-based; conditions: HaCaT (normal keratinocytes), 24 h
Method: as §5

[10] = tested on: human keratinocyte cell line HaCaT; assay: LDH cell cytotoxicity assay; format: cell-based; conditions: for LDH leakage: 25 μM, 24 h
Method: (§6) A Pierce LDH cytotoxicity assay kit (Thermo Scientific, Waltham, MA, USA) was applied for the LDH assay. An immortalized human microvascular endothelial cell line, HMEC-1, and a human keratinocyte cell line, HaCaT, were used in the LDH assay. A total of 8000 cells were placed in each well of the 96-well tissue culture plate with 100 µL of medium and incubated at 37 °C with 5% CO2 overnight. The cells were cultured with different drug concentrations ranging from 100 µM to 1µM for 24 h. […] of lysis buffer was prepared as the maximum LDH activity control. After incubating at 37 °C with 5% CO2 for 45 min, 50 µL of the sample was transferred into each well medium in a 96-well flat-bottom plate. Then, 50 µL of the reaction mixture was transferred to the wells and mixed. The 96-well plate was cultured for 30 min and protected from light at room temperature. Then, 50 µL of stop solution (supplied in the kit) was added to each well and mixed. The absorbance was detected at 490 nm and 680 nm.

[11] = tested on: immortalized human microvascular endothelial cell line HMEC-1; assay: LDH cell cytotoxicity assay; format: cell-based
Method: as §6

`CC[C@H](C)[C@H](NC(=O)[C@H](CC(C)C)NC(=O)[C@@H]1CCCN1C(=O)[C@H](CC(C)C)NC(=O)[C@@H](N)Cc1ccccc1)C(=O)N[C@@H](CC(C)C)C(=O)N[C@@H](CCCNC(=N)N)C(=O)N[C@@H](CCCCN)C(=O)N[C@H](C(=O)N[C@H](C(=O)N[C@H](C(=O)N[C@@H](C)C(=O)N[C@@H](CC(C)C)C(N)=O)[C@@H](C)O)C(C)C)[C@@H](C)CC` [Crabrolin, FLPLILRKIVTAL-NH2] (H-FLPLILRKIVTAL-NH2) gave an MBC [1] of 256 µM, an MIC [1] of 128 µM and an MBIC [2] of 128 µM. For the same compound, the MBEC [2] was 512 µM, the “Death of healthy larvae” value [3] was “did not result in the death of healthy larvae” and the MBC [4] was 128 µM. For the same compound, the MIC [4] was 64 µM, the MBIC [5] was >512/>512 µM and the MBEC [5] was >512/>512 µM. For the same compound, the MBC (E. faecium (NTCC 12697)) was 64 µM, the MIC (E. faecium (NTCC 12697)) was 16 µM and the MBIC [6] was 4 µM. For the same compound, the MBEC [6] was 128 µM, the IC50 [7] was 8.54 µM and the IC50 [8] was 20.1 µM. For the same compound, the IC50 [9] was 31.2 µM, the LDH leakage [10] was roughly 20% and the “Cytotoxicity (LDH release)” value ([10]; 100 μM) was “showed cytotoxicity”. For the same compound, the “Cytotoxicity (LDH release)” value ([11]; HMEC-1, 100 μM) was “showed cytotoxicity”.

`CC[C@H](C)[C@H](NC(=O)[C@H](CCCNC(=N)N)NC(=O)[C@@H]1CCCN1C(=O)[C@H](CC(C)C)NC(=O)[C@@H](N)Cc1ccccc1)C(=O)N[C@@H](CC(C)C)C(=O)N[C@@H](CCCNC(=N)N)C(=O)N[C@@H](CCCCN)C(=O)N[C@H](C(=O)N[C@H](C(=O)N[C@@H](CCCNC(=N)N)C(=O)N[C@@H](C)C(=O)N[C@@H](CC(C)C)C(N)=O)C(C)C)[C@@H](C)CC` [Crabrolin-TR, FLPRILRKIVRAL-NH2] (H-FLPRILRKIVRAL-NH2) was tested, and the MBC [1] was 8 µM, the MIC [1] was 4 µM and the MBIC [2] was 8 µM. The MBEC [2] was 256 µM, the “Death of healthy larvae” value [3] was “did not result in the death of healthy larvae” and the MBC [4] was 8 µM. The MIC [4] was 8 µM, the MBIC [5] was 8 µM and the MBEC [5] was 128 µM. For the same compound, the MBC (E. faecium (NTCC 12697)) was 8 µM, the MIC (E. faecium (NTCC 12697)) was 4 µM and the MBIC [6] was 2 µM. It also gave an MBEC [6] of 64 µM, an IC50 [7] of 2.81 µM and an IC50 [8] of 12.4 µM. The IC50 ([8]; listed as crabrolin-TR) was greater than 10 µM, the IC50 [9] was 20.9 µM and the LDH leakage [10] was roughly 20%. The “Cytotoxicity (LDH release)” value ([11]; HMEC-1, 25 μM) was “cytotoxic”.
